Experiments:
[1] = test system: Puccinia recondita f. Sp. Tritici; assay: Fungicidal activity against Puccinia recondita f. sp. tritici / wheat / leaf disc preventative (brown rust); type: in vivo; conditions: foliar, 200 ppm in the applied formulation, wheat leaf segments, preventative, compared to untreated control leaf disks, read-out: disease control
Summary of the method: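 Preventative leaf-segment test, wheat cv. Kanzler on water agar. Spray compound at 200 ppm, inoculate with spores 1 day later; 19° C., 75% rh, 12/12 h light. Read-out: % disease control vs untreated, 7 to 9 days after application.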

[2] = test system: Puccinia recondita f. Sp. Tritici; assay: Fungicidal activity against Puccinia recondita f. sp. tritici / wheat / leaf disc curative (brown rust); type: in vivo; conditions: foliar, 24 h, 200 ppm in the applied formulation, wheat leaf segments, curative (applied 1 day after inoculation), compared to untreated control leaf disks, read-out: disease control
Summary of the method: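 Inoculate cv. Kanzler segments on agar; hold dark, 19° C, 75% RH. Spray diluted formulated compound at day 1. Incubate 12 h light/12 h dark, same temperature and humidity; score % control vs untreated 6–8 days later.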

Phakopsora Pachyrhizi = assay: Fungicidal activity against Phakopsora pachyrhizi / soybean / leaf disc preventative (Asian soybean rust); type: in vivo; conditions: foliar, 200 ppm in the applied formulation, soybean leaf disks, compared to untreated control leaf disks, read-out: disease control
Summary of the method: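 Preventative soybean leaf-disc test: discs on water agar sprayed with diluted formulated compound, inoculated one day later with spores on the lower surface. Held 24–36 h dark at 20°C, 75% rh, then 12 h light/day; percent disease control versus untreated discs scored 12–14 days after application.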

[3] = test system: Glomerella lagenarium (Colletotrichum lagenarium); assay: Fungicidal activity against Glomerella lagenarium (Colletotrichum lagenarium) liquid culture / cucumber / preventative (anthracnose); type: cell-based; conditions: Colletotrichum orbiculare; 20 ppm in the applied formulation; liquid culture (PDB), growth inhibition measured photometrically after 3 to 4 days; compared to untreated control; read-out: disease control
Summary of the method: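 Photometric read-out of fungal growth after 2–7 days, expressed as percent antifungal activity versus untreated check. Cryo-stored conidia in PDB; compound at 20 ppm; dark, 24 °C, 96% RH.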

COCCCC(=O)N(CCO)Cc1ccc(-c2noc(C(F)(F)F)n2)cc1 [Compound 1.724, N-(2-hydroxyethyl)-4-methoxy-N-[[4-[5-(trifluoromethyl)-1,2,4-oxadiazol-3-yl]phenyl]methyl]-butanamide]
≥ 80%: pest or weed control at 200 ppm [1] | pest or weed control at 200 ppm [2] | pest or weed control at 200 ppm (Phakopsora Pachyrhizi) | inhibition of growth at 20 ppm [3]

COCCCC(=O)OCCN(Cc1ccc(-c2noc(C(F)(F)F)n2)cc1)C(=O)CCCOC [Compound 1.725, 2-[4-methoxybutanoyl-[[4-[5-(trifluoromethyl)-1,2,4-oxadiazol-3-yl]phenyl]methyl]-amino]ethyl 4-methoxybutanoate]
≥ 80%: pest or weed control at 200 ppm [1] | pest or weed control at 200 ppm [2] | pest or weed control at 200 ppm (Phakopsora Pachyrhizi) | inhibition of growth at 20 ppm [3]

O=C(C1CCCO1)N(CCO)Cc1ccc(-c2noc(C(F)(F)F)n2)cc1 (stereo not shown) [Compound 1.726, N-(2-hydroxyethyl)-N-[[4-[5-(trifluoromethyl)-1,2,4-oxadiazol-3-yl]phenyl]methyl]-tetrahydrofuran-2-carboxamido]
≥ 80%: pest or weed control at 200 ppm [1] | pest or weed control at 200 ppm [2] | pest or weed control at 200 ppm (Phakopsora Pachyrhizi) | inhibition of growth at 20 ppm [3]

O=C(OCCN(Cc1ccc(-c2noc(C(F)(F)F)n2)cc1)C(=O)C1CCCO1)C1CCCO1 (stereo not shown) [Compound 1.727, 2-[tetrahydrofuran-2-carbonyl-[[4-[5-(trifluoromethyl)-1,2,4-oxadiazol-3-yl]phenyl]methyl]-amino]ethyl tetrahydrofuran-2-carboxylate]
≥ 80%: pest or weed control at 200 ppm [1] | pest or weed control at 200 ppm [2] | pest or weed control at 200 ppm (Phakopsora Pachyrhizi) | inhibition of growth at 20 ppm [3]

CC(C)C(=O)N(Cc1ccc(-c2noc(C(F)(F)F)n2)cc1)C1COC1 [Compound 1.738, 2-methyl-N-(oxetan-3-yl)-N-[[4-[5-(trifiuoromethyl)-1,2,4-oxadiazol-3-yl]phenyl]methyl]-propanamide]
≥ 80%: pest or weed control at 200 ppm [1] | pest or weed control at 200 ppm [2] | pest or weed control at 200 ppm (Phakopsora Pachyrhizi) | inhibition of growth at 20 ppm [3]

O=C(C1CC1(F)F)N(Cc1ccc(-c2noc(C(F)(F)F)n2)cc1)C1COC1 (stereo not shown) [Compound 1.739, 2,2-difluoro-N-(oxetan-3-yl)-N-[[4-[5-(trifluoromethyl)-1,2,4-oxadiazol-3-yl]phenyl]methyl]-cyclopropane-carboxamide]
≥ 80%: pest or weed control at 200 ppm [1] | pest or weed control at 200 ppm [2] | pest or weed control at 200 ppm (Phakopsora Pachyrhizi) | inhibition of growth at 20 ppm [3]

O=C(c1ccccc1Cl)N(Cc1ccc(-c2noc(C(F)(F)F)n2)cc1)C1COC1 [Compound 1.740, 2-chloro-N-(oxetan-3-yl)-N-[[4-[5-(trifluoromethyl)-1,2,4-oxadiazol-3-yl]phenyl]methyl]-benzamide]
≥ 80%: pest or weed control at 200 ppm [1] | pest or weed control at 200 ppm [2] | pest or weed control at 200 ppm (Phakopsora Pachyrhizi) | inhibition of growth at 20 ppm [3]

COCCC(=O)N(Cc1ccc(-c2noc(C(F)(F)F)n2)cc1)C1COC1 [Compound 1.741, 3-methoxy-N-(oxetan-3-yl)-N-[[4-[5-(trifluoromethyl)-1,2,4-oxadiazol-3-yl]phenyl]methyl]-propanamide]
≥ 80%: pest or weed control at 200 ppm [1] | pest or weed control at 200 ppm [2] | pest or weed control at 200 ppm (Phakopsora Pachyrhizi) | inhibition of growth at 20 ppm [3]

O=C(C1CCC1)N(Cc1ccc(-c2noc(C(F)(F)F)n2)cc1)C1COC1 [Compound 1.742, N-(oxetan-3-yl)-N-[[4-[5-(trifluoromethyl)-1,2,4-oxadiazol-3-yl]phenyl]methyl]-cyclobutane-carboxamide]
≥ 80%: pest or weed control at 200 ppm [1] | pest or weed control at 200 ppm [2] | pest or weed control at 200 ppm (Phakopsora Pachyrhizi) | inhibition of growth at 20 ppm [3]

CC1(C(=O)N(Cc2ccc(-c3noc(C(F)(F)F)n3)cc2)C2COC2)CC1 [Compound 1.743, 1-methyl-N-(oxetan-3-yl)-N-[[4-[5-(trifluoromethyl)-1,2,4-oxadiazol-3-yl]phenyl]methyl]-cyclopropane-carboxamide]
≥ 80%: pest or weed control at 200 ppm [1] | pest or weed control at 200 ppm [2] | pest or weed control at 200 ppm (Phakopsora Pachyrhizi) | inhibition of growth at 20 ppm [3]

CCC(COC)C(=O)N(Cc1ccc(-c2noc(C(F)(F)F)n2)cc1)C1COC1 (stereo not shown) [Compound 1.745, 2-(methoxymethyl)-N-(oxetan-3-yl)-N-[[4-[5-(trifluoromethyl)-1,2,4-oxadiazol-3-yl]phenyl]methyl]-butanamide]
≥ 80%: pest or weed control at 200 ppm [1] | pest or weed control at 200 ppm [2] | pest or weed control at 200 ppm (Phakopsora Pachyrhizi) | inhibition of growth at 20 ppm [3]

N#CC1(C(=O)N(Cc2ccc(-c3noc(C(F)(F)F)n3)cc2)C2COC2)CC1 [Compound 1.749, 1-cyano-N-(oxetan-3-yl)-N-[[4-[5-(trifluoromethyl)-1,2,4-oxadiazol-3-yl]phenyl]methyl]-cyclopropane-carboxamide]
≥ 80%: pest or weed control at 200 ppm [1] | pest or weed control at 200 ppm [2] | pest or weed control at 200 ppm (Phakopsora Pachyrhizi) | inhibition of growth at 20 ppm [3]

O=C(CC(F)(F)F)N(Cc1ccc(-c2noc(C(F)(F)F)n2)cc1)C1COC1 [Compound 1.751, 3,3,3-trifluoro-N-(oxetan-3-yl)-N-[[4-[5-(trifluoromethyl)-1,2,4-oxadiazol-3-yl]phenyl]methyl]-propanamide]
≥ 80%: pest or weed control at 200 ppm [1] | pest or weed control at 200 ppm [2] | pest or weed control at 200 ppm (Phakopsora Pachyrhizi) | inhibition of growth at 20 ppm [3]

CC(C)C(=O)N(O)Cc1ccc(-c2noc(C(F)(F)F)n2)cc1 [Compound 1.752, N-hydroxy-2-methyl-N-[[4-[5-(trifluoromethyl)-1,2,4-oxadiazol-3-yl]phenyl]methyl]-propanamide]
≥ 80%: pest or weed control at 200 ppm [1] | pest or weed control at 200 ppm [2] | pest or weed control at 200 ppm (Phakopsora Pachyrhizi) | inhibition of growth at 20 ppm [3]

O=C(C1CC1(F)F)N(O)Cc1ccc(-c2noc(C(F)(F)F)n2)cc1 (stereo not shown) [Compound 1.753, 2,2-difluoroN-hydroxy-N-[[4-[5-(trifluoromethyl)-1,2,4-oxadiazol-3-yl]phenyl]methyl]-cyclopropane-carboxamide]
≥ 80%: pest or weed control at 200 ppm [1] | pest or weed control at 200 ppm [2] | pest or weed control at 200 ppm (Phakopsora Pachyrhizi) | inhibition of growth at 20 ppm [3]

O=C(C1CCOC1)N(O)Cc1ccc(-c2noc(C(F)(F)F)n2)cc1 (stereo not shown) [Compound 1.756, N-hydroxy-N-[[4-[5-(trifluoromethyl)-1,2,4-oxadiazol-3-yl]phenyl]methyl]-tetrahydrofuran-3-carboxamide]
≥ 80%: pest or weed control at 200 ppm [1] | pest or weed control at 200 ppm [2] | pest or weed control at 200 ppm (Phakopsora Pachyrhizi) | inhibition of growth at 20 ppm [3]

O=C(ON(Cc1ccc(-c2noc(C(F)(F)F)n2)cc1)C(=O)C1CCOC1)C1CCOC1 (stereo not shown) [Compound 1.757, [tetrahydrofuran-3-carbonyl-[[4-[5-(trifluoromethyl)-1,2,4-oxadiazol-3-yl]phenyl]methyl]-amino] tetrahydrofuran-3-carboxylate]
≥ 80%: pest or weed control at 200 ppm [1] | pest or weed control at 200 ppm [2] | pest or weed control at 200 ppm (Phakopsora Pachyrhizi) | inhibition of growth at 20 ppm [3]

COCCC(=O)N(O)Cc1ccc(-c2noc(C(F)(F)F)n2)cc1 [Compound 1.758, N-hydroxy-3-methoxy-N-[[4-[5-(trifluoromethyl)-1,2,4-oxadiazol-3-yl]phenyl]methyl]-propanamide]
≥ 80%: pest or weed control at 200 ppm [1] | pest or weed control at 200 ppm [2] | pest or weed control at 200 ppm (Phakopsora Pachyrhizi) | inhibition of growth at 20 ppm [3]

COCCC(=O)ON(Cc1ccc(-c2noc(C(F)(F)F)n2)cc1)C(=O)CCOC [Compound 1.759, [3-methoxy-propanoyl-[[4-[5-(trifluoromethyl)-1,2,4-oxadiazol-3-yl]phenyl]methyl]-amino] 3-methoxypropanoate]
≥ 80%: pest or weed control at 200 ppm [1] | pest or weed control at 200 ppm [2] | pest or weed control at 200 ppm (Phakopsora Pachyrhizi) | inhibition of growth at 20 ppm [3]

CCC(=O)ON(Cc1ccc(-c2noc(C(F)(F)F)n2)cc1)C(=O)CC [Compound 1.760, [propanoyl-[[4-[5-(trifluoromethyl)-1,2,4-oxadiazol-3-yl)phenyl]methyl]-amino] propanoate]
≥ 80%: pest or weed control at 200 ppm [1] | pest or weed control at 200 ppm [2] | pest or weed control at 200 ppm (Phakopsora Pachyrhizi) | inhibition of growth at 20 ppm [3]

O=C(C1CCC1)N(O)Cc1ccc(-c2noc(C(F)(F)F)n2)cc1 [Compound 1.761, N-hydroxy-N-[[4-[5-(trifluoromethyl)-1,2,4-oxadiazol-3-yl]phenyl]methyl]-cyclobutane-carboxamide]
≥ 80%: pest or weed control at 200 ppm [1] | pest or weed control at 200 ppm [2] | pest or weed control at 200 ppm (Phakopsora Pachyrhizi) | inhibition of growth at 20 ppm [3]

O=C(ON(Cc1ccc(-c2noc(C(F)(F)F)n2)cc1)C(=O)C1CCC1)C1CCC1 [Compound 1.762, [cyclobutane-carbonyl-[[4-[5-(trifluoromethyl)-1,2,4-oxadiazol-3-yl]phenyl]methyl]-amino] cyclobutane-carboxylate]
≥ 80%: pest or weed control at 200 ppm [1] | pest or weed control at 200 ppm [2] | pest or weed control at 200 ppm (Phakopsora Pachyrhizi) | inhibition of growth at 20 ppm [3]

Reference: US11180462B2, “Microbiocidal oxadiazole derivatives” (SYNGENTA PARTICIPATIONS AG, priority 2015, dated 2021)
